# Measured values from US12023319B2, “Carboxylic acid aromatic amides” (priority 2016, dated 2024).
# Values joined by “and” are separate entries in the source; they are usually repeats but may differ in a detail not shown here. Identical values can stand only once.
# Assays:
# [1] = tested on: Female Brown Norway rats; assay: Rat model for endometriosis, late phase (15 day); type: in vivo; conditions: rat 15 day endometriosis model, once daily p.o. 5, 30, 60 mg/kg; FIG. 5-6
# Method: 5. Rat Model for Endometriosis, Late Phase Female Brown Norway rats (Charles-River) were treated with Compound Example 3 (doses: 5 mg/kg, 30 mg/kg, 60 mg/kg) or vehicle alone (10% DMSO+90% phosphate buffered saline (PBS). 2 h later all animals got under deep anesthesia a transplantation of 6 uterus pieces in the peritoneal cavity. The tissue was obtained from donor animals which were pre-treated with 3 μg s.c. Estradiol for 2 days to guarantee standardized conditions of the uterus tissue. The animals were treated once daily p.o. with Compound Example 3 (doses: 5 mg/kg, 30 mg/kg, 60 mg/kg) or respective vehicle (10% DMSO+90% phosphate buffered saline (PBS). 15 days later the animals were sacrificed and the transplants as surrogate endometriosis lesion tissue were analyzed for markers of lesion activity (inflammatory cytokines). This approach is mimicking the long term effect on established inflammation in endometriosis. Analysis For ex vivo cytokine analysis, animals were sacrificed and tissues (endometriosis lesions) were frozen at −80° C. […] After centrifugation at 13.000 U/min (Eppendorf) supernatants were analyzed for cytokine levels using Bio-Plex Pro™ Rat Cytokine 24-plex (Bio Rad Assay #171K1001M) or the Bio-Plex Pro™ Mouse Cytokine 23-Plex (Bio Rad Assay #M600009RDPD) according to the manufacturer's protocols.
# [2] = tested on: Male Sprague-Dawley rats; assay: Rat STZ model for diabetic neuropathy (cold plate, warm plate, paw pressure, SNCV); type: in vivo; conditions: for Latency in Cold plate / Latency in Warm plate / Paw pressure: STZ rats; for Latency in Cold plate / Latency in Warm plate: Day 10, individual animals; for Paw pressure: Day 21, individual animals
# Method: 7. Rat STZ Model for Diabetic Neuropathy (Diabetic Neuropathic Pain, Diabetes Induced Nerve Degeneration)
# The streptozotocin (STZ) diabetic rat is the most extensively studied animal model of diabetic neuropathy. The animals develop rapidly allodynia and hyperalgesia.
# Male Sprague-Dawley rats (˜200 g) were used. They were rendered diabetic by intravenous injection of streptozotocin (55 mg/kg; day 0). Four days (day 4) later, diabetes was confirmed in STZ-injected rats by obtaining a blood sample from the tail vein and by measuring the glucose concentration using a glucose monitor. Only STZ-treated rats with plasma-glucose>260 mg/dl were deemed “diabetic”. The body weight of rats was recorded on daily basis from day 4 to 40.
# 72 animals were randomly assigned to different groups (12 rats per group).
# Compound example 3 was prepared in 10% DMSO in PBS (v/v). […] The treatment was performed on daily basis (twice a day: morning and afternoon) from day 4 until day 40. On the day where behavioral measures are performed, compound or vehicle was given 60 min prior the assessment. On the day where electrophysiological measure was performed, treatment was performed after the assessment.
# For positive control regarding analgesia, morphine was dissolved in 0.9% NaCl, and administrated subcutaneously (s.c.) at the dose of 3 mg/kg 45 min prior the tests.
# Experimental Plan: • Day 0: induction of diabetes by injection of STZ for all groups except the control group injected with the STZ vehicle • Day 4: glycemia monitoring for all groups and start of the treatment for all groups, except the morphine group. On day 4 rats received only the evening treatment. • Day 10: cold and warm allodynia test for all groups. Treatment is given 60 min prior to the assessment. On that day, the time between the morning and the evening treatment was reduced. • Day 21: Mechanical hyperalgesia test for all groups. Compound or vehicle was given 60 min prior to the assessment. On that day, the time between the morning and the evening treatment was reduced. • Day 22: Termination of rats in the morphine group. • Day 25-26: measurement of sensory nerve conduction velocity (SNCV). On that day, rats only received the evening treatment. • Day 39-40: measurement of sensory nerve conduction velocity (SNCV). On that day, rats only received the evening treatment. • Day 41: skin biopsy from all rats (histology processing and immunostaining of skin biopsy from 7 rats per group take about 4 weeks).
# Cold Plate Test on Day 10
# The animals were placed into a glass cylinder on a cold platform (0-1° C.). The latency before the first reaction (brisk move of the paw, little leaps) was recorded with a maximal time of 30 s.
# Warm Plate Test on Day 10
# The animals were placed into a glass cylinder on a hot plate adjusted to 42° C. The latency of the first reaction was recorded (paw lifting or licking, leaps or a jump to escape the heat). Results can be seen in FIG. 8 and table 6.
# Paw pressure test is used to assess the hyperalgesia of animals in response to noxious mechanical stimulus. The nociceptive flexion reflex was quantified using the Randall-Selitto paw pressure device (Bioseb, France), which applies a linearly increasing mechanical force to the dorsum of the rat's hind paw. The mechanical nociceptive threshold is defined as the force in grams at which the rat withdraws its paw. The cut off pressure was set to 250 g.
# Electrophysiological Measurements (SNCV)
# Electrophysiological recordings of SNCV were performed using a Keypoint Electromyograph (EMG) (Medtronic, France). Rats were anaesthetized by intraperitoneal injection of 60 mg/kg ketamine chlorhydrate and 4 mg/kg xylazine. SNCV was recorded in the tail. Electrodes were placed as follows: The recording needle electrode was inserted near the base of the tail and stimulating needle electrode is placed about 50 mm away from the recording electrode towards the extremity of the tail. […]
compound,measurement,setting,value
"O=C(O)c1cc(NC(=O)C2(c3ccc(C(F)(F)F)cc3F)CC2)ccc1-c1cnn(C2CCC2)c1 [Example 3, 2-(1-Cyclobutyl-1H-pyrazol-4-yl)-5-[({1-[2-fluoro-4-(trifluoromethyl)phenyl]cyclopropyl}carbonyl)amino]benzoic acid]","expression of inflammatory cytokines in the lesions (IL-1 alpha, IL-1 beta)",[1],decreased
same,effects in all endpoints (warm/cold/mechanical) of neuropathic pain,"[2]; STZ diabetic rats, p.o. twice a day from day 4, tests on day 10 and day 21",significant effects
same,Latency in Cold plate,"[2]; 3 mg/kg, 3 mg/kg",14.39 s and 14.46 s and 22.78 s and 15.84 s and 16.87 s and 16.18 s and 21.38 s and 20.52 s and 17.93 s and 15.23 s and 26.66 s and 23.47 s
same,Latency in Warm plate,"[2]; 3 mg/kg, 3 mg/kg",19.71 s and 21.41 s and 22.31 s and 20.16 s and 14.49 s and 17.12 s and 22.29 s and 17.89 s (2×) and 23.35 s and 24.72 s and 21.04 s
same,Paw pressure,"[2]; 3 mg/kg, 3 mg/kg",125 g (3×) and 150 g (2×) and 105 g (4×) and 115 g and 140 g and 100 g
same,Latency in Cold plate,"[2]; 15 mg/kg, 15 mg/kg",22.94 s and 18.19 s and 23.62 s and 18.66 s and 20.23 s and 19.51 s and 23.02 s and 17.08 s and 24.66 s and 24.25 s and 20.00 s
same,Latency in Warm plate,"[2]; 15 mg/kg, 15 mg/kg",21.21 s and 17.56 s and 30.00 s and 23.09 s and 23.47 s and 19.44 s and 28.47 s and 15.88 s and 24.82 s and 20.31 s and 27.35 s
same,Paw pressure,"[2]; 15 mg/kg, 15 mg/kg",100 g and 125 g (2×) and 135 g (2×) and 120 g and 110 g (3×) and 85 g and 105 g
same,Latency in Cold plate,"[2]; 60 mg/kg, 60 mg/kg",20.21 s and 15.60 s and 17.29 s and 19.84 s and 14.52 s and 13.66 s and 22.28 s and 24.12 s and 21.12 s and 17.48 s and 22.45 s and 16.59 s
same,Latency in Warm plate,"[2]; 60 mg/kg, 60 mg/kg",17.88 s and 24.69 s and 21.32 s and 18.69 s and 21.23 s and 28.84 s and 18.84 s and 30.00 s and 23.02 s and 20.56 s and 26.94 s and 20.31 s
same,Paw pressure,"[2]; 60 mg/kg, 60 mg/kg",105 g and 165 g and 95 g and 115 g (3×) and 140 g and 120 g and 110 g (3×) and 190 g
